The results in this text go back to patent US20230374007A1, “COMPOUNDS AND THEIR USE IN TREATING CANCER” (AstraZeneca AB, priority 2020, published 2023).

In general, IC50 refers to the concentration needed to halve the response being measured. The low end stands for inhibition by little substance, the high end for a need for much substance.

The target of this experiment is T1, cereblon (CRBN)—DNA damage protein 1 (DDB1) complex (Homo sapiens, UniProt Q96SW2).
T1 construct: encoding amino acid residues 1 to 442 (Uniprot Q96SW2); hexahistidine (N); thrombin cleavage site (N); made in house; host or cells: Sf9 insect cells (baculovirus co-infection)
T1 sequence (Q96SW2 with tags, fused parts or gaps): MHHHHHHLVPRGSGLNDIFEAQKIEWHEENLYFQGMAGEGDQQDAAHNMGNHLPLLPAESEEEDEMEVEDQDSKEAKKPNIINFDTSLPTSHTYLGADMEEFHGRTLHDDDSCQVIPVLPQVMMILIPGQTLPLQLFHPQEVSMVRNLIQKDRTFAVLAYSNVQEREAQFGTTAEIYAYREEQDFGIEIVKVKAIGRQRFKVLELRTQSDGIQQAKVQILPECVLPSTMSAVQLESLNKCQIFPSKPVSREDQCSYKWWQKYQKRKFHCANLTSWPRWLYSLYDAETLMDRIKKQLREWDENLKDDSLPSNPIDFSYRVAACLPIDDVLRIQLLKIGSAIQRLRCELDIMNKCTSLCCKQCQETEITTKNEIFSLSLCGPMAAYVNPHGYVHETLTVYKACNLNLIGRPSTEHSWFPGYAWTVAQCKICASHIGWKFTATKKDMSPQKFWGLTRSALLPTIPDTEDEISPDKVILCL
The experiment can be described thus: Cereblon HTRF binding assay. The source says: The synthesized sequence was designed to encode an N-terminal hexahistidine tag, a thrombin cleavage site, an AviTag™ and a tobacco etch virus protease (TEV) cleavage site followed by the CBRN sequence. The resulting protein sequence is listed below.
The synthesized sequence was designed to encode an N-terminal hexahistidine tag, a tobacco etch virus protease (TEV) cleavage site followed by the DDB1 sequence. […] The linker amino acid residues are underlined and shown in italics.
Baculovirus production of CBRN and DDB1: Recombinant bacmid and P2 virus of CBRN and DDB1 was generated according to the Bac-to-Bac Baculovirus Expression System manual (ThermoFisher Scientific).
Protein Purification: Protein purification was initiated by thawing cells (resuspended in Lysis buffer) at r.t. Once thawed, NaCl was added to a final concentration of 200 mM, followed by 0.01 μL/mL Benzonase™ and the lysate was incubated with slow stirring for 20 minutes. After the freeze-thaw lysis, the whole cell lysate was centrifuged at 48 000 g for 45 minutes and all following purification steps were done on ice or in cold-room. Supernatant (cell lysate) was mixed with 1 mL/50 mL lysate Ni Sepharose™ 6 Fast Flow (Cytiva) pre-equilibrated with Wash buffer (50 mM Tris-Cl pH 8, 20 mM Imidazole, 500 mM NaCl, 10% Glycerol, 1 mM TCEP) and incubated with slow stirring for 1 h. The mix was loaded in a 70 mL open gravity flow column, washed with 10 bed volumes of Wash buffer, and stepwise eluted with 300 mM imidazole in Wash buffer. […] After biotinylation, the CBRN/DDB1 complex was purified by Size Exclusion Chromatography on a HiLoad™ 26/60 Superdex™ 200 column equilibrated in SEC buffer (50 mM HEPES pH 7.5, 200 mM NaCl, 5% glycerol, 1 mM TCEP) before flash-freezing in liquid nitrogen and storage at −80° C.
The assay mixture in a total volume of 4 μL consists of 50 mM Tris-HCl at pH 7.5, 100 mM NaCl, 0.01% Pluronic F127, 1 mM TCEP, 500 μM EDTA, 0.2 nM CRBN-DDB1, 0.2 nM terbium cryptate labeled streptavidin, and 2 nM Cyanine 5-labeled lenalidomide as the probe. […] Reagents were dispensed into the 384-well assay microplate using a Certus Flex liquid dispenser. After incubation for 2 h at r.t., the assay plates were read on a PHERAstar FSX plate reader (BMG Labtech) in the HTRF mode. The raw data from PHERAstar was directly imported into Genedata Screener for analysis. […] The ratio was normalized to positive and negative controls on the same plates to calculate percent inhibition: I %=(I−NC)/(PC−NC), where I are readings from the compound treated well, NC and PC are average readings from negative control wells and positive control wells, respectively. IC50 values were obtained by fitting the I % vs. compound concentration [I] to I %=S0+(SInf−S0)/(1+((IC50/[I])^n)), where S0 is the fitted activity level at zero concentration of test compound, SInf is the fitted activity level at […] concentration of test compound, and n is the hill coefficient of the curve.
The IC50 values reported below are the calculated mean result of one or more experiments.
Background: In TR-FRET formats the signal depends on donor and acceptor labels being close together.
Consider `O=C1CCN(c2cccc3[nH]ccc23)C(=O)N1` [Example 18, 1-(1H-Indol-4-yl)dihydropyrimidine-2,4 (1H,3H)-dione], for which the IC50 turned out to be 347 nM. Then `O=C1CCN(c2cc(N3CCNCC3)cc3[nH]ccc23)C(=O)N1` [Example 91, 1-(6-(Piperazin-1-yl)-1H-indol-4-yl)dihydropyrimidine-2,4 (1H,3H)-dione], with 762 nM.

Regarding `O=C1CCN(c2ccc3c(c2)CCN3)C(=O)N1` [Example 20, 1-(Indolin-5-yl)dihydropyrimidine-2,4 (1H,3H)-dione], the IC50 is 357 nM. This IC50 lies about 2.1-fold lower than the previous one. For `O=C1CCN(c2ccc3cc[nH]c3c2F)C(=O)N1` [Example 54, 1-(7-Fluoro-1H-indol-6-yl)dihydropyrimidine-2,4 (1H,3H)-dione] the value was 188 nM. For `CN1CCCc2cc(N3CCC(=O)NC3=O)ccc21` [Example 27, 1-(1-Methyl-1,2,3,4-tetrahydroquinolin-6-yl)dihydropyrimidine-2,4 (1H,3H)-dione] the value was 1040 nM; for `CN1Cc2ccc(N3CCC(=O)NC3=O)cc2C1` [Example 25, 1-(2-Methylisoindolin-5-yl)dihydropyrimidine-2,4 (1H,3H)-dione], 2960 nM. Turning to `O=C1CCN(c2ccn3ccnc3c2)C(=O)N1` [Example 7, 1-(Imidazo[1,2-a]pyridin-7-yl)dihydropyrimidine-2,4 (1H,3H)-dione], the IC50 turned out to be 3000 nM. In the case of `O=C1CCN(c2cccc3[nH]c(C4CCNCC4)cc23)C(=O)N1` [Example 86, 1-(2-(Piperidin-4-yl)-1H-indol-4-yl)dihydropyrimidine-2,4 (1H,3H)-dione], the IC50 was determined as 291 nM. Then `Cc1cn(-c2ccc3cc[nH]c3c2)c(=O)[nH]c1=O` [Example 15, 1-(1H-Indol-6-yl)-5-methylpyrimidine-2,4 (1H,3H)-dione], with 10600 nM; and `O=C1CCN(c2ccc(N3CCNCC3)c3[nH]ccc23)C(=O)N1` [Example 123, 1-(7-(Piperazin-1-yl)-1H-indol-4-yl)dihydropyrimidine-2,4 (1H,3H)-dione], with 597 nM; and `O=C1CCN(c2ccc3c(c2)cc2n3CCNC2)C(=O)N1` [Example 104, 1-(1,2,3,4-Tetrahydropyrazino[1,2-a]indol-8-yl)dihydropyrimidine-2,4 (1H,3H)-dione], with 283 nM. Then `Cn1ccc2c(N3CCC(=O)NC3=O)cc(N3CCNCC3)cc21` [Example 90, 1-(1-Methyl-6-(piperazin-1-yl)-1H-indol-4-yl)dihydropyrimidine-2,4 (1H,3H)-dione], with 771 nM; and `Cn1cc(N2CCNCC2)c2ccc(N3CCC(=O)NC3=O)cc21` [Example 74, 1-(1-Methyl-3-(piperazin-1-yl)-1H-indol-6-yl)dihydropyrimidine-2,4 (1H,3H)-dione], with 3810 nM; and `CN1CCN(c2ccc(N3CCC(=O)NC3=O)c3cc[nH]c23)CC1` [Example 124, 1-(7-(4-Methylpiperazin-1-yl)-1H-indol-4-yl)dihydropyrimidine-2,4 (1H,3H)-dione], with 527 nM. Then `CN1CCC(n2cc3ccc(-n4ccc(=O)[nH]c4=O)cc3n2)CC1` [Example 132, 1-(2-(1-Methylpiperidin-4-yl)-2H-indazol-6-yl)pyrimidine-2,4 (1H,3H)-dione], with 2160 nM; and `COc1cc2cc[nH]c2cc1N1CCC(=O)NC1=O` [Example 61, 1-(5-Methoxy-1H-indol-6-yl)dihydropyrimidine-2,4 (1H,3H)-dione], with 1510 nM; and `O=C1CCN(c2ccc3nn(C4CCNCC4)cc3c2)C(=O)N1` [Example 107, 1-(2-(Piperidin-4-yl)-2H-indazol-5-yl)dihydropyrimidine-2,4 (1H,3H)-dione], with 3780 nM.

`CN1CCn2c(cc3cc(N4CCC(=O)NC4=O)ccc32)C1` [Example 105, 1-(2-Methyl-1,2,3,4-tetrahydropyrazino[1,2-a]indol-8-yl)dihydropyrimidine-2,4 (1H,3H)-dione] had a half-maximal inhibitory concentration (IC50) of 460 nM. For `Cc1c(N2CCC(=O)NC2=O)ccc2cc[nH]c12` [Example 57, 1-(7-Methyl-1H-indol-6-yl)dihydropyrimidine-2,4 (1H,3H)-dione] the value was 96 nM; for `CC(=O)N1CCN(c2c[nH]c3ccc(N4CCC(=O)NC4=O)cc23)CC1` [Example 79, 1-(3-(4-Acetylpiperazin-1-yl)-1H-indol-5-yl)dihydropyrimidine-2,4 (1H,3H)-dione], 1980 nM.

`CN1CCN(c2cn(C)c3ccc(N4CCC(=O)NC4=O)cc23)CC1` [Example 80, 1-(1-Methyl-3-(4-methylpiperazin-1-yl)-1H-indol-5-yl)dihydropyrimidine-2,4 (1H,3H)-dione]: the IC50 stood at 3150 nM. Then `CN1CCN(c2c[nH]c3cc(N4CCC(=O)NC4=O)ccc23)CC1` [Example 72, 1-(3-(4-Methylpiperazin-1-yl)-1H-indol-6-yl)dihydropyrimidine-2,4 (1H,3H)-dione], with 926 nM. In turn, `CN1CCN(c2cn(C)c3cc(N4CCC(=O)NC4=O)ccc23)CC1` [Example 75, 1-(1-Methyl-3-(4-methylpiperazin-1-yl)-1H-indol-6-yl)dihydropyrimidine-2,4 (1H,3H)-dione] yielded an IC50 of 4040 nM. This IC50 lies about 4.4-fold higher than the previous one. Then `CC(=O)N1CCC(n2ccc3ccc(N4CCC(=O)NC4=O)cc32)CC1` [Example 122, 1-(1-(1-Acetylpiperidin-4-yl)-1H-indol-6-yl)dihydropyrimidine-2,4 (1H,3H)-dione], with 2120 nM; and `O=C1CCN(c2ccc3c(ccn3C3CCNCC3)c2)C(=O)N1` [Example 113, 1-(1-(Piperidin-4-yl)-1H-indol-5-yl)dihydropyrimidine-2,4 (1H,3H)-dione], with 1080 nM; and `O=C1CCN(c2cc3[nH]ccc3cc2F)C(=O)N1` [Example 60, 1-(5-Fluoro-1H-indol-6-yl)dihydropyrimidine-2,4 (1H,3H)-dione], with 444 nM. On to `O=C1CCN(c2ccc3c(c2)CCCN3)C(=O)N1` [Example 26, 1-(1,2,3,4-Tetrahydroquinolin-6-yl)dihydropyrimidine-2,4 (1H,3H)-dione], for which the IC50 worked out at 1490 nM. Turning to `O=C1CCN(c2ccc3nn[nH]c3c2)C(=O)N1` [Example 38, 1-(1H-Benzo[d][1,2,3]triazol-6-yl)dihydropyrimidine-2,4 (1H,3H)-dione], the IC50 came to 566 nM. Then `CN1CCC(c2cc3c(N4CCC(=O)NC4=O)cccc3[nH]2)CC1` [Example 87, 1-(2-(1-Methylpiperidin-4-yl)-1H-indol-4-yl)dihydropyrimidine-2,4 (1H,3H)-dione], with 379 nM; and `Cc1c(N2CCC(=O)NC2=O)cnc2cc[nH]c12` [Example 49, 1-(7-Methyl-1H-pyrrolo[3,2-b]pyridin-6-yl)dihydropyrimidine-2,4 (1H,3H)-dione], with 124 nM.

On to `O=C1CCN(c2ccc3nc(N4CCNCC4)oc3c2)C(=O)N1` [Example 98, 1-(2-(Piperazin-1-yl)benzo[d]oxazol-6-yl)dihydropyrimidine-2,4 (1H,3H)-dione], for which the IC50 was found to be 3120 nM. Then `CN(C)c1cc(N2CCC(=O)NC2=O)cc2[nH]ccc12` [Example 133, 1-(4-(Dimethylamino)-1H-indol-6-yl)dihydropyrimidine-2,4 (1H,3H)-dione], with 2820 nM; and `N#Cc1ncc(N2CCC(=O)NC2=O)c2cc[nH]c12` [Example 135, 4-(2,4-dioxotetrahydropyrimidin-1 (2H)-yl)-1H-pyrrolo[2,3-c]pyridine-7-carbonitrile], with 594 nM.

Compound `O=C1CCN(c2c(Cl)ccc3[nH]ccc23)C(=O)N1` [Example 64, 1-(5-Chloro-1H-indol-4-yl)dihydropyrimidine-2,4 (1H,3H)-dione] yielded an IC50 of 78 nM. Compared with the last compound, the IC50 is about 7.6-fold lower.

As to `O=C1CCN(c2ccc3ncsc3c2)C(=O)N1` [Example 9, 1-(Benzo[d]thiazol-6-yl)dihydropyrimidine-2,4 (1H,3H)-dione], the IC50 came to 5350 nM.
